# Where two headings read alike, the source gives them in different places.
# Tests used:
# [1] = system: EL-4 murine T lymphoma cells; experiment: EL-4 murine T lymphoma in C57/BL6 mice; format: in vivo; conditions: after 4 weeks of treatment, compared with group 1 (saline)
# Protocol: EL-4 murine T lymphoma cells are implanted into C57/BL6 mice. The mice are divided into 6 groups of 10 mice. On day 0, group 1 mice receive saline, group 2 mice receive 3 base GT SEQ ID NO:8, group 3 mice receive 6 base SEQ ID NO:25, group 4 mice receive 6 base AG SEQ ID NO:45, group 5 mice receive 18 base GT SEQ ID NO: 18 and group 6 mice receive 27 base GT SEQ ID NO:1. After 4 weeks of treatment, the mice are sacrificed and tumor mass is determined.
# [2] = system: Jurkat human leukemia T cells; experiment: Cell cycle stage in Jurkat cells (propidium iodide flow cytometry); format: cell-based; conditions: Jurkat, 24 h, 100 μg/ml
# In short: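 Phase distribution (G0/G1, early, mid and late S, G2/M) came from flow cytometry with doublet discrimination on propidium iodide-stained nuclei. Jurkat cells were given 24 h exposure to 2–45-base oligonucleotides, or at 1×10^6 cells/ml to single 6-base GT or AC strands heated 10 min at 65 °C or 1:1 hybridized duplex.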
# [3] = system: Jurkat human leukemia T cells; experiment: Inhibition of Jurkat human leukemia T cell proliferation (MTT reduction); format: cell-based; conditions: for % INHIBITION of Jurkat human leukemia T cell proliferation: 100 μg/ml sequence, 48 h, 2.5×10^5 cells/ml
# In short: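 Read-out is MTT absorbance at 570 nm after 48 h. Sequences of 2 to 45 bases (A, C, G, T) tested at 100 μg/ml against untreated control, with 2.5×10^5 Jurkat cells/ml held at 37° C under 5% CO2.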
# [4] = system: SK-OV-3 human ovarian cancer cells; experiment: Inhibition of SK-OV-3 cell proliferation (MTT); format: cell-based; conditions: 100 μg/ml, 48 h, 5×10^5 cells/ml
# Protocol: (§1) Cells were seeded in 6 (1 ml/well), 24 (0.5 ml/well) or 96 (0.1 ml/well) well flat-bottom microplates and were maintained at 37° C. in a 5% CO2 atmosphere. Unless stated otherwise, 2.5×10^5 cells/ml were incubated with 0 μg/ml (control) and 100 μg/ml (treated) of 2 to 45 base sequences containing A, C, G and T for 48 h.
# (§2) Cell proliferation was measured using dimethylthiazol-diphenyl-tetrazolium (MTT) reduction (Mosman et al. J. Immunol. Methods 65:55, 1983). MTT was measured at a wavelength of 570 nm using a multiplate spectrophotometer reader (ELX800, Bio-TEK Instruments Inc., Winooski, Vt.).
# SK-OV-3 ovarian cancer cells are a p53 mutated, p21/waf-1/Cip deleted, p15^ink4B deleted, p16^Ink4 deleted, metastatichuman solid tumor model. SK-OV-3 cells (5×10^5 cells/ml) were incubated with 2, 6 and 18 base GT sequences (Table 12).
# [5] = system: OVCAR-3 human ovarian cancer cells; experiment: Inhibition of OVCAR-3 cell proliferation (MTT); format: cell-based; conditions: 100 μg/ml, 48 h, 5×10^5 cells/ml
# Protocol: as §1, §2
# OVCAR-3 ovarian cancer cells are a p53 mutated, p21/waf-1/Cip deleted, metastatic human solid tumor model. OVCAR-3 cells (5×10^5 cells/ml) were incubated with 2, 6 and 18 base GT sequences and with a 6 base AGT sequence (Table 11).
# [6] = system: THP-1 human acute monocytic leukemia cells; experiment: Cytokine production by THP-1 cells (ELISA); format: cell-based; conditions: THP-1, 1×10^6 cells, 100 μg/ml, 48 h
# In short: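 Read-out is fold increase in supernatant cytokine versus control cells, measured by ELISA (IL-12 ELISA counts p70 complex plus free p40). Unless noted, sequences were tested at 100 μg/ml on 1×10^6 cells, incubated 48 h, 37° C, 5% CO2.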
# [7] = system: EL-4 murine T lymphoma cells; experiment: Inhibition of EL-4 cell proliferation (MTT); format: cell-based; conditions: 100 μg/ml, 48 h
# Protocol: as §1, §2
# EL-4 murine lymphoma T cells are a suspension tumor model. EL-4 murine lymphoma T cells were incubated with 6, 18, 27 and 33 base GT sequences and with a 15 base ACG sequence (Table 18).
# [8] = system: MCF-7 human breast cancer cells; experiment: Cell cycle stage in MCF-7 cells (propidium iodide flow cytometry); format: cell-based; conditions: MCF-7, 5×10^5 cells/ml, 24 h
# Protocol: Cell cycle stage was determined using a […]™ PLUS DNA commercial kit (Becton Dickinson). Briefly, nuclei from cells were obtained by dissolving the cell membrane in a nonionic detergent, eliminating the cell cytoskeleton and nuclear proteins with trypsin, digesting the cellular RNA with RNase and stabilizing the nuclear chromatin with spermine. Propidium iodide was added to the cell nuclei and their fluorescence was analyzed in a flow cytometer equipped with electronic doublet discrimination capability (FACSCalibur, Becton Dickinson, San Jose, Calif.). Accumulation of cells in G0/G1, early S (SE), mid S (SM), late S (SL) or G2/M phases of the cell cycle was analyzed using MODFIT LT software (Verity Software House Inc., Topsham, Mass.).
# Exponentially growing Jurkat human leukemia T cells (Table 28) and MCF-7 human breast cancer cells (5×10^5 cells/ml) (Table 29) were incubated for 24 h with 2, 6, 15, 18, 27 and 45 base sequences containing A, C, G and T. The cells were collected and centrifuged and cell cycle stage was determined.
# Burkitt lymphoma cells = conditions: Mata et al. 1997; cited from earlier work
# [9] = system: PC-3 human prostate cancer cells; experiment: Inhibition of PC-3 cell proliferation (MTT); format: cell-based; conditions: 100 μg/ml, 48 h, 5×10^5 cells/ml
# Protocol: as §1, §2
# PC-3 prostate cancer cells are a p53 mutated, androgen-independent human solid tumor model. PC-3 cells (5×10^5 cells/ml) were incubated with 3 and 6 base GT sequences (Table 8).
# [10] = system: Jurkat human leukemia T cells; experiment: NuMA release into supernatant (ELISA); format: cell-based; conditions: Jurkat, 50 μM sequence
# In short: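 Jurkat T cells (1×10^6/ml) exposed to GT-containing oligonucleotide sequences, at 50 μM in some experiments, for 24 h in some experiments. NuMA released into the supernatant quantified by commercial ELISA.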
# [11] = system: Jurkat human leukemia T cells; experiment: Apoptosis by phosphatidylserine/annexin V-FITC flow cytometry; format: cell-based; conditions: 50 μM sequence
# In short: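 Jurkat cells were exposed to 3–7-base oligonucleotides (GT, ACGT, AG, GG, AGT, CGT sequences) at 50 μM. Separately, 6-base GT and complementary AC sequences, alone or hybridized 1:1 (10 min, 65 °C), were applied for 24 h. Phosphatidylserine exposure was quantified by flow cytometry with FITC-annexin V.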
# [12] = system: MCF-7 human breast cancer cells; experiment: Inhibition of MCF-7 cell proliferation (MTT); format: cell-based; conditions: for inhibition at 1 µg/mL: Homo sapiens, MCF7
# In short: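 Cells at 2.5×10^5 cells/ml (GT 3- and 6-base series at 5×10^5 cells/ml) treated with 100 μg/ml of 2-45-base oligonucleotide sequences versus untreated control for 48 h at 37 °C, 5% CO2. Proliferation read by MTT reduction at 570 nm.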
# [13] = system: LNCaP human prostate cancer cells; experiment: LNCaP human prostate cancer xenografts in male nude nu/nu mice; format: in vivo; conditions: after 4 weeks of treatment, compared with other groups (group 1 saline, group 5 BCG A-3)
# Protocol: LNCaP human prostate cancer cells are implanted subcutaneously, as xenografts, in male nude nu/nu mice. The mice are divided into 5 groups of 10 mice. On day 0, group 1 mice receive saline, group 2 mice receive 3 base SEQ ID NO:8, group 3 mice receive 6 base GT SEQ ID NO:25, group 4 mice receive 6 base AG SEQ ID NO:45 and group 5 mice receive 45 base BCG A-3 SEQ ID NO:69. After 4 weeks of treatment, the mice are sacrificed and timor mass is determined.
# [14] = system: MCF-7 human breast cancer cells; experiment: MCF-7 human breast tumor xenografts in female nude BALB/c mice; format: in vivo; conditions: after 4 weeks of treatment, compared with other groups (group 1 saline)
# Protocol: MCF-7 human breast cancer cells are implanted subcutaneously as xenografts, in female nude BALB/c mice. The mice are divided into 6 groups of 10 mice. […] After 4 weeks of treatment, the mice are sacrificed and tumor mass is determined.
# chimpanzee PBMCs = experiment: Cytokine production by chimpanzee PBMC (ELISA); format: cell-based; conditions: PBMC of 4 healthy chimpanzees, 100 μg/ml, 48 h
# In short: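 PBMCs from 4 healthy chimpanzees (1×10^6 cells) were incubated 48 h at 37 °C, 5% CO2 with 100 μg/ml of each 6-base sequence. Supernatant IL-10, IL-12 (p70 plus free p40) and TNF-alpha were measured by ELISA. Values are fold increase over untreated control cells.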
# [15] = system: human peripheral blood mononuclear cells; experiment: Cytokine production by human PBMC (ELISA); format: cell-based; conditions: PBMC of 7 healthy humans, 100 μg/ml, 48 h
# In short: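 PBMC from 7 healthy donors, Ficoll-isolated; 1×10^6 cells incubated with 100 μg/ml oligonucleotide sequence for 48 h at 37 °C, 5% CO2. IL-1beta, IL-6, IL-10, IL-12 (p70 plus free p40) and TNF-alpha measured by ELISA in supernatant, expressed as fold increase over control cells.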
# rhesus monkey PBMCs = experiment: Cytokine production by rhesus monkey PBMC (ELISA); format: cell-based; conditions: PBMC of 4 healthy rhesus monkeys, 100 μg/ml, 48 h
# In short: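 Peripheral blood mononuclear cells taken from 4 healthy rhesus monkeys were cultured at 1×10^6 cells with 100 μg/ml of each test sequence for 48 h at 37° C. under 5% CO2. Cytokine levels in 100 μl of supernatant were quantified in pg/ml by commercial ELISA and reported as fold increase over untreated control cells.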
# [16] = 5-fluorouracil 0.1 μg/ml, alone or with sequence at 1.0 μg/ml
compound,measurement,setting,value
GTGTGTGTGTGTGTGTGT (unmodified DNA) [SEQ ID NO:18],tumor mass,[1],less tumor mass than group 1 mice
same,% of cells in phase: G0/G1,[2],24.2%
same,% of cells in phase: G2/M,[2],16.4%
same,% of cells in phase: SE,[2],26.7%
same,% of cells in phase: SL,[2],8.7%
same,% of cells in phase: SM,[2],24.0%
same,Arrest (cell cycle),[2],Mid SM
same,% INHIBITION of Jurkat human leukemia T cell proliferation,[3],60%
same,% INHIBITION of SK-OV-3 human ovarian cancer cell proliferation,[4],6%
same,% INHIBITION of OVCAR-3 human ovarian cancer cell proliferation,[5],10%
same,↑ IL-6 (fold increase treated vs control cells),[6],2.8x
same,% INHIBITION of EL-4 murine T lymphoma cell proliferation,[7],−2%
same,% cells in phase: G0/G1,[8],25.3%
same,% cells in phase: G2/M,[8],15.7%
same,% cells in phase: SE,[8],31.6%
same,% cells in phase: SL,[8],10.5%
same,% cells in phase: SM,[8],16.9%
same,Arrest (cell cycle),[8],Mid SM
TTAGGG (phosphorothioate backbone) [SEQ ID NO:49-phosphorothioate],induction of apoptosis in Burkitt lymphoma cells,Burkitt lymphoma cells,induce apoptosis in Burkitt lymphoma cells
same,inhibition of telomerase activity,Burkitt lymphoma cells,inhibit telomerase activity
GTG (chemistry not given here) [SEQ ID NO:8],% INHIBITION of PC-3 human prostate cancer cell proliferation,[9],13%
same,tumor mass,[1],less tumor mass than group 1 mice
same,% INHIBITION of Jurkat human leukemia T cell proliferation,[3],46%
same,% NuMA released (treated vs untreated cells),[10],97%
same,% of cells in apoptosis (positive for PS/A-V staining),[11],21%
same,% INHIBITION of MCF-7 human breast cancer cell proliferation,"[12]; 100 μg/ml, 48 h, 5×10^5 cells/ml",18%
same,tumor mass,[13],less tumor mass than groups 1 and 5 mice
"CC/C(=C(\c1ccccc1)c1ccc(OCCN(C)C)cc1)c1ccccc1 [Tamoxifen, reference compound]",tumor mass,[14],less tumor mass than group 1 mice
same,inhibition at 1 µg/mL,"[12]; tamoxifen 1.0 μg/ml, alone or with sequence at 1.0 μg/ml, read-out: % INHIBITION of MCF-7 proliferation, Tamoxifen 1.0 μg/ml",18%
same,"% INHIBITION of MCF-7 proliferation, Tamoxifen 0.1 μg/ml","[12]; tamoxifen 0.1 μg/ml, alone or with sequence at 1.0 μg/ml",10%
same,"% INHIBITION of MCF-7 proliferation, Tamoxifen 10.0 μg/ml","[12]; tamoxifen 10.0 μg/ml, alone or with sequence at 1.0 μg/ml",15%
GGGAGG (unmodified DNA) [SEQ ID NO:45],tumor mass,[1],less tumor mass than group 1 mice
same,IL-10 fold increase: mean +/− SD,chimpanzee PBMCs,9.9 +/− 9.2 fold increase
same,IL-12 fold increase: mean +/− SD,chimpanzee PBMCs,15.9 +/− 10.7 fold increase
same,TNF-alpha fold increase: mean +/− SD,chimpanzee PBMCs,14.5 +/− 6.9 fold increase
same,% INHIBITION of Jurkat human leukemia T cell proliferation,[3],28%
same,% NuMA released (treated vs untreated cells),[10],74%
same,IL-1 beta fold increase: mean +/− SD,[15],13.6 +/− 14.9 fold increase
same,IL-6 fold increase: mean +/− SD,[15],24.7 +/− 16.5 fold increase
same,IL-10 fold increase: mean +/− SD,[15],6.0 +/− 5.5 fold increase
same,IL-12 fold increase: mean +/− SD,[15],20.7 +/− 10.3 fold increase
same,% of cells in apoptosis (positive for PS/A-V staining),[11],27%
same,↑ IL-6 (fold increase treated vs control cells),[6],23.2x
same,↑ IL-12 (fold increase treated vs control cells),[6]; p70 complex and free p40,−1.6x
same,tumor mass,[13],less tumor mass than groups 1 and 5 mice
same,IL-10 fold increase: mean +/− SD,rhesus monkey PBMCs,1.1 +/− 0.1 fold increase
same,IL-12 fold increase: mean +/− SD,rhesus monkey PBMCs,11.9 +/− 4.5 fold increase
same,TNF-alpha fold increase: mean +/− SD,rhesus monkey PBMCs,16.7 +/− 4.6 fold increase
"O=c1[nH]cc(F)c(=O)[nH]1 [5-Fluorouracil, reference compound]","% INHIBITION of Jurkat proliferation, 5-Fluorouracil 0.1 μg/ml",[3]; [16],3%
same,"% INHIBITION of Jurkat proliferation, 5-Fluorouracil 10.0 μg/ml","[3]; 5-fluorouracil 10.0 μg/ml, alone or with sequence at 1.0 μg/ml",38%
same,inhibition at 1 µg/mL,"[3]; Homo sapiens, Jurkat, 5-fluorouracil 1.0 μg/ml, alone or with sequence at 1.0 μg/ml",14%
same,tumor mass,[14],less tumor mass than group 1 mice
same,"% INHIBITION of MCF-7 proliferation, 5-Fluorouracil 0.1 μg/ml",[12]; [16],13%
same,inhibition at 1 µg/mL,"[12]; 5-fluorouracil 1.0 μg/ml, alone or with sequence at 1.0 μg/ml, read-out: % INHIBITION of MCF-7 proliferation, 5-Fluorouracil 1.0 μg/ml",28%

# From US20070213291A1, “Therapeutically useful synthetic oligonucleotides” (priority 1999, published 2007)
